Read-outs that look alike come from different tables or passages of the source.

Holding throughout (test): MTT growth inhibition assay
Common to all, as to assay type: cell-based, human

In one experiment the test system is BEAS-2B. The following applies: normal cells, 72 hr, read-out: Growth inhibitory activity (IC50). How it is done: (§1) Several of the disclosed compounds were also tested for their ability to inhibit the growth of other cancer cell lines as shown in Tables 4 and 5. The cell lines were obtained from the American Type Culture Collection (Rockville, Md.) and were grown as follows: MCF-7 (p53 wt) breast cancer cells were grown in DMEM media containing 1 mM non-essential amino acids, Earle's BSS, 1 mM Na pyruvate, and 10 mg/L bovine insulin. MDA-MB-468 (p53 mt) cells were grown in DMEM/F-12 Ham's media (1:1 mixture); H838 (p53 wt) cells were grown in RPMI 1640. H358 (p53 null), H1299 (p53 null) cells were grown in RPMI 1640 supplemented with 1.5 g/L Na2CO3; 4.5 g/L glucose, 10 mM HEPES buffer, 1 mM Na pyruvate and 2 mM L-glutamine. A549 (p53 wt) cells were grown in Ham's F12K medium supplemented with 2 mM L-glutamine and 1.5 g/L Na2CO3; LNCaP (p53 wt) cells were grown in RPMI 1640 supplemented with 1.5 g/L Na2CO3, 4.5 g/L glucose, 10 mM HEPES buffer, 1 mM Na pyruvate and 2 mM L-glutamine. PC3 (p53 null) cells were cultured in Ham's F-12K medium containing 2 mM L-glutamine. TRAMP Cl cells were cultured in DEME medium with 4 mM L-glutamine adjusted to contain 1.5 g/L sodium bicarbonate and 4.5 g/L glucose supplemented with 0.005 mg/ml bovine insulin and 10 nM dehydroisoandrosterone, 5% fetal bovine serum and 5% Nu-Serum IV; HPAC (p53 wt) pancreatic cancer cells were grown in a 1:1 mixture of DMEM and Ham's F12 medium containing 1.2 g/L Na2CO3, 2.5 mM L-glutamine, 15 mM HEPES and 0.5 mM Na pyruvate supplemented with 0.002 mg/mL insulin, 5 μg/mL transferrin, 40 ng/mL hydrocortisone, 10 ng/mL epidermal growth factor and 5% fetal bovine serum. PANC-1 (p53 mt) cells were cultured with RPMI 1640 containing 1 mM HEPES buffer, 25 μg/mL gentamicin, 1.5 g/L Na2CO3 and 0.25 μg/mL amphotericin B. BxPC-3 (p53 mt) cells were grown in RPMI 1640 medium, MiaPaCa-2 (p53 mt) and S2013 (p53 mt) cells were grown in DMEM, cell line CFPAC1 (p53 mt) was grown in Iscove's MEM supplemented with 4 mM L-glutamine; T98G (p53 mt) glioma cells were cultured with DMEM supplemented with 1% Na pyruvate, and 1% non-essential amino acids; HCT116 human colon cancer cell lines were kindly provided by Dr. Bert Vogelstein (Johns Hopkins Oncology Center, Baltimore, Md.). The HCT116 cell line was maintained in McCoy's-5A media; Human bronchial epithelial cell line BEAS 2B was cultured in DMEM medium; Human mammary epithelial cell line MCF10A was cultured in a 1:1 mixture of DMEM and Ham's F12 medium containing 5% horse serum, 15 mM hepes buffer, 10 ug/ml insulin, 20 ng/ml EGF, 100 ng/ml choleratoxin and 0.5 ug/ml hydrocortisone; the human primary fibroblast cell lines IMR90-EEA and IMR90-E1A (transformed using the adenoviral oncogene E1A) were gifts from Dr. S. Lee (Harvard University, Boston, Mass.). IMR90 and IMR90-E1A cells were cultured in DMEM medium.
(§2) All media contained 10% FBS and 1% penicillin/streptomycin unless otherwise specified. The effects of disclosed compounds on human cancer cell growth, expressed as the percentage of cell survival, were determined by the MTT [3-(4,5-Dimethyl-2-thiazolyl)-2,5-diphenyl-2H-tetrazolium bromide] assay. Cells were grown in 96-well plates and exposed to the test compounds (0, 0.01, 0.1, 1, 10, 100 μM) for 72 hr followed by addition of 10 μL MTT solution (5 mg/mL; Sigma; St. Louis, Mo.) to each well. The plates were incubated for 2-4 hr at 37° C. The supernatant was then removed and formazan crystals were dissolved with 100 μL of DMSO. The absorbance at 570 nm was recorded with an OPTImax microplate reader (Molecular Devices; Sunnyvale, Calif.). The cell survival percentages were calculated by dividing the mean OD of compound containing wells by that of DMSO-control wells. Three separate experiments were accomplished to determine the IC50.

A further experiment relates to BXPC3. The following applies: 72 hr, read-out: Growth inhibitory activity (IC50). How it is done: as §1, §2
Another experiment relates to CFPAC1. Particulars: 72 hr, read-out: Growth inhibitory activity (IC50). How it is done:
as §1, §2

Another experiment concerns H1299. Particulars: 72 hr, read-out: Growth inhibitory activity (IC50). How it is done:
as §1, §2

The next experiment has as its system H358. Particulars: 72 hr, read-out: Growth inhibitory activity (IC50). The method, then:
as §1, §2

For another experiment, the system named is H838. The following applies: 72 hr, read-out: Growth inhibitory activity (IC50). The method, then: as §1, §2
The test system of the next experiment is HPAC. Particulars: cancer cell, 72 hr, read-out: Growth inhibitory activity (IC50). The method, then: as §1, §2
In the next experiment the test system is IMR90-EEA. Particulars: normal cells, 72 hr, read-out: Growth inhibitory activity (IC50). How it is done: as §1, §2
A further experiment concerns LNCaP. The following applies: cancer cell, 72 hr, read-out: Growth inhibitory activity (IC50). The method, then:
as §1, §2

The test system of another experiment is MCF10A. The following applies: normal cells, 72 hr, read-out: Growth inhibitory activity (IC50). The method, then: as §1, §2
In another experiment the test system is MDA-MB-468. Particulars: MDA-MB-468, cancer cell, 72 hr, read-out: Growth inhibitory activity (IC50). The method, then: as §1, §2
The next experiment concerns Mia-paca. The following applies: 72 hr, read-out: Growth inhibitory activity (IC50). The method, then:
as §1, §2

For another experiment, the system named is Panc-1. The following applies: Panc-1, cancer cell, 72 hr, read-out: Growth inhibitory activity (IC50). The method, then: as §1, §2
Another experiment has as its system S2013. The following applies: S2013, cancer cell, 72 hr, read-out: Growth inhibitory activity (IC50). How it is done: as §1, §2
Setting [1] is: Homo sapiens, BXPC-3, BXPC3, cancer cell.
The mark [2] stands for this setting: Homo sapiens, CFPAC-1, CFPAC1, cancer cell.
Setting [3] is: Homo sapiens, NCI-H1299, H1299, cancer cell.
Where [4] appears, read: Homo sapiens, NCI-H358, H358, cancer cell.
Setting [5] is: Homo sapiens, NCI-H838, H838, cancer cell.
[6] abbreviates: Homo sapiens, MIA PaCa-2, cancer cell.

Turning to `O=C1C(NCc2ccccc2)=CC2=NCCc3c[nH]c1c32` [Compound 4c], the IC50 in the experiment on BEAS-2B was found to be 1440 nM; with BXPC3 (BXPC3, cancer cell), 2870 nM; with CFPAC1 (CFPAC1, cancer cell) it was 8770 nM; with H1299 (H1299, cancer cell) it was 1420 nM; with H358 (H358, cancer cell), 436 nM; in the experiment with H838 (H838, cancer cell), 160 nM. Also, the IC50 in the experiment on HPAC stood at 689 nM; in the experiment on IMR90-EEA it was 2770 nM; in the experiment with LNCaP, 2750 nM; in the experiment with MCF10A, 5270 nM; in the experiment on MDA-MB-468, 126 nM; with Mia-paca (cancer cell) it was 345 nM. Moreover, the IC50 was 141 nM in the experiment with Panc-1 and 3850 nM with S2013.
For `O=C1C(NCCc2ccccc2)=CC2=NCCc3c[nH]c1c32` [Compound 4d], the IC50 in the experiment on BEAS-2B is 695 nM; in the experiment on BXPC3 (BXPC3, cancer cell), 2940 nM; in the experiment with CFPAC1 (CFPAC1, cancer cell), 5110 nM; with H1299 (H1299, cancer cell), 4270 nM; with H358 (H358, cancer cell), 398 nM; in the experiment on H838 (H838, cancer cell) it was 260 nM. The IC50 in the experiment on HPAC came to 1130 nM; with IMR90-EEA, 3770 nM; in the experiment on LNCaP, 161 nM; in the experiment with MCF10A, 6820 nM; with MDA-MB-468 it was 101 nM; in the experiment on Mia-paca (cancer cell), 982 nM. For the same molecule, the results for the IC50 in the experiment on Panc-1 and with S2013 were 258 nM and 5390 nM, respectively.
As for `O=C(O)C(F)(F)F.O=C1C(NCCc2ccc3c(c2)OCO3)=CC2=NCCc3c[nH]c1c32` [Compound 6], the IC50 in the experiment on BEAS-2B (Homo sapiens) is 2240 nM; in the experiment with BXPC3 (setting [1]) it was 3210 nM; in the experiment with CFPAC1 (setting [2]) it was 9100 nM; in the experiment with H1299 (setting [3]), 5940 nM; in the experiment on H358 (setting [4]), 1200 nM; in the experiment on H838 (setting [5]), 665 nM. Besides, the IC50 in the experiment on HPAC (Homo sapiens) was determined as 2920 nM; with IMR90-EEA (Homo sapiens), 5700 nM; with LNCaP (Homo sapiens), 3960 nM; in the experiment with MCF10A (Homo sapiens, MCF-10A), 13100 nM; with MDA-MB-468 (Homo sapiens), 428 nM; with Mia-paca (setting [6]), 2740 nM. Also, the IC50 in the experiment with Panc-1 (Homo sapiens) amounted to 587 nM; with S2013 (Homo sapiens) it was 11200 nM.
As for `COc1ccc(CCNC2=CC3=NCCc4c[nH]c(c43)C2=O)cc1OC.O=C(O)C(F)(F)F` [Compound 20], the IC50 stood at 1690 nM in the experiment with BEAS-2B (Homo sapiens); 5010 nM in the experiment on BXPC3 (setting [1]); 4270 nM with CFPAC1 (setting [2]); 5990 nM in the experiment on H1299 (setting [3]); 983 nM in the experiment with H358 (setting [4]); 838 nM in the experiment on H838 (setting [5]). Further, the IC50 is 2850 nM in the experiment with HPAC (Homo sapiens); 2880 nM in the experiment on IMR90-EEA (Homo sapiens); 24500 nM in the experiment on LNCaP (Homo sapiens); 3400 nM in the experiment with MCF10A (Homo sapiens, MCF-10A); 277 nM in the experiment on MDA-MB-468 (Homo sapiens); 1320 nM with Mia-paca (setting [6]). Also, the IC50 came to 720 nM in the experiment on Panc-1 (Homo sapiens) and 29600 nM in the experiment on S2013 (Homo sapiens).
As for `O=C(O)C(F)(F)F.O=C1C(NCc2ccc(F)cc2)=CC2=NCCc3c[nH]c1c32` [Compound 28], the IC50 in the experiment with BEAS-2B (Homo sapiens) is 587 nM; in the experiment with BXPC3 (setting [1]) it was 2300 nM; in the experiment with CFPAC1 (setting [2]) it was 5400 nM; with H1299 (setting [3]), 968 nM; in the experiment with H358 (setting [4]), 170 nM; in the experiment with H838 (setting [5]), 110 nM. Further, the IC50 with HPAC (Homo sapiens) turned out to be 535 nM; with IMR90-EEA (Homo sapiens), 1490 nM; with LNCaP (Homo sapiens) it was 1290 nM; in the experiment with MCF10A (Homo sapiens, MCF-10A), 5330 nM; in the experiment on MDA-MB-468 (Homo sapiens), 125 nM; with Mia-paca (setting [6]), 315 nM. In addition, the IC50 worked out at 104 nM with Panc-1 (Homo sapiens) and 4450 nM with S2013 (Homo sapiens).

Values taken from patent publication US20100144779A1, “Marine Alkalod Makaluvamines and Derivatives Thereof” (THE UAB RESEARCH FOUNDATION, priority 2007, published 2010).
